Experimental data published in US20250368649A1, “TETRAHYDROPYRIDOPYRIMIDINE PAN-KRAS INHIBITORS” (Mirati Therapeutics, Inc., priority 2022, published 2025).

Legend:
[1] = test system: H727 cells; experiment: Inhibition of KRas-mediated phosphorylation of ERK (Cisbio HTRF pERK), H727 cells; assay type: cell-based; details: Homo sapiens; for IC50: NCI-H727, 3 h, 3 hr compound incubation; for inhibition at 0.1 µM: NCI-H727, single point at 100 nM, 3 hrs compound incubation
[2] = test system: A549 cells; experiment: Inhibition of KRas-mediated phosphorylation of ERK (Cisbio HTRF pERK), A549 cells; assay type: cell-based; details: Homo sapiens; for inhibition at 0.1 µM: single point at 100 nM, 3 hrs compound incubation
[3] = target: KRas G12R (Homo sapiens, UniProt P01116, G12R); experiment: biochemical; details: Binding to KRas (IC50 nM) G12R, TR-FRET displacement, KRas G12R
Sequence of KRas G12R (P01116 1-169 isoform P01116-2 G12R): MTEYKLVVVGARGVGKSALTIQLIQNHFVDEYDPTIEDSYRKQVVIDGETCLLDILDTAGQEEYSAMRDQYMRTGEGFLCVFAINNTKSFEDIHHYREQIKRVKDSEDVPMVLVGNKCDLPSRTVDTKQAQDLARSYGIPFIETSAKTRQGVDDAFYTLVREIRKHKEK

[4] = test system: ASPC1 cells; experiment: Inhibition of KRas-mediated phosphorylation of ERK (Cisbio HTRF pERK), ASPC1 cells; assay type: cell-based; details: Homo sapiens, AsPC-1 cells; for IC50: ASPC1, 3 h, 3 hr compound incubation; for inhibition at 0.1 µM: ASPC1, single point at 100 nM, 3 hrs compound incubation
[5] = test system: H358 cells; experiment: Inhibition of KRas-mediated phosphorylation of ERK (Cisbio HTRF pERK), H358 cells; assay type: cell-based; details: Homo sapiens; for inhibition at 0.1 µM: NCI-H358, single point at 100 nM, 3 hrs compound incubation
[6] = target: KRas G12D (Homo sapiens, UniProt P01116, G12D); experiment: biochemical; details: Binding to KRas (IC50 nM) G12D, TR-FRET displacement, KRas G12D
Sequence of KRas G12D (P01116 1-169 isoform P01116-2 G12D): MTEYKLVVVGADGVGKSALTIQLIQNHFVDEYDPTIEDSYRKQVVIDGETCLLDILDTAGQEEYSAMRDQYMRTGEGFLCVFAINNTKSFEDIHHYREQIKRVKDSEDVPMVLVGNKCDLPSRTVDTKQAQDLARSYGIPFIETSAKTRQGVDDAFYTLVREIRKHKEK

[7] = target: KRas G12V (Homo sapiens, UniProt P01116, G12V); experiment: biochemical; details: Binding to KRas (IC50 nM) G12V, TR-FRET displacement, KRas G12V
Sequence of KRas G12V (P01116 1-169 isoform P01116-2 G12V): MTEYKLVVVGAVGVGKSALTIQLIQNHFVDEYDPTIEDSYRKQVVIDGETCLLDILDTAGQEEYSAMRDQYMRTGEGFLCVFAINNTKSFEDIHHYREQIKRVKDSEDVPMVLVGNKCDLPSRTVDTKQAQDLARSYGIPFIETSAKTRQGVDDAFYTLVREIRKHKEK

[8] = test system: HCT116 cells; experiment: Inhibition of KRas-mediated phosphorylation of ERK (Cisbio HTRF pERK), HCT116 cells; assay type: cell-based; details: Homo sapiens; for inhibition at 0.1 µM: HCT-116, single point at 100 nM, 3 hrs compound incubation
[9] = test system: H460 cells; experiment: Inhibition of KRas-mediated phosphorylation of ERK (Cisbio HTRF pERK), H460 cells; assay type: cell-based; details: Homo sapiens; for inhibition at 0.1 µM: NCI-H460, single point at 100 nM, 3 hrs compound incubation

SMILES: CCc1c(F)ccc2cc(O)cc(N3CCc4c(nc(OC[C@@]56CCCN5C[C@H](F)C6)nc4N4CCCn5nc(C(=O)N6CC7CNC(C7)C6)cc5C4)C3)c12 (stereo partly drawn) [Example 234, 3,6-diazabicyclo[3.2.1]octan-3-yl(5-(7-(8-ethyl-7-fluoro-3-hydroxynaphthalen-1-yl)-2-(((2R,7aS)-2-fluorohexahydro-1H-pyrrolizin-7a-yl)methoxy)-5,6,7,8-tetrahydropyrido[3,4-d]pyrimidin-4-yl)-5,6,7,8-tetrahydro-4H-pyrazolo[1,5-a][1,4]diazepin-2-yl)methanone]
- IC50 ([1]; Cisbio pERK HTRF): 1560 nM
- inhibition at 0.1 µM [1]: 22%
- inhibition at 0.1 µM [2]: 9%
- IC50 [3]: 4 nM
- IC50 ([4]; Cisbio pERK HTRF): 52 nM
- inhibition at 0.1 µM [4]: 34%
- inhibition at 0.1 µM [5]: -28%
- IC50 [6]: < 2 nM
- IC50 [7]: < 2 nM
- inhibition at 0.1 µM [8]: 14%
- inhibition at 0.1 µM [9]: -4%

SMILES: CCc1c(F)ccc2cc(O)cc(N3CCc4c(nc(OC[C@@]56CCCN5C[C@H](F)C6)nc4N4CCCn5nc(CN(C)S(=O)(=O)NC)cc5C4)C3)c12 [Example 237, 7-(8-ethyl-7-fluoro-3-hydroxy-1-naphthyl)-2-(((2R,7aS)-2-fluorotetrahydro-1H-pyrrolizin-7a(5H)-yl)methoxy)-4-(2-((methylsulfamoyl)methylamino)methyl-7,8-dihydro-4H-pyrazolo[1,5-a][1,4]diazepin-5(6H)-yl)-6,8-dihydro-5H-pyrido[3,4-d]pyrimidine]
- IC50 ([1]; Cisbio pERK HTRF): 1640 nM
- inhibition at 0.1 µM [1]: 22%
- inhibition at 0.1 µM [2]: 30%
- IC50 [3]: 19 nM
- IC50 ([4]; Cisbio pERK HTRF): 639 nM
- inhibition at 0.1 µM [4]: 10%
- inhibition at 0.1 µM [5]: 7%
- IC50 [6]: 7 nM
- IC50 [7]: 13 nM
- inhibition at 0.1 µM [8]: 5%
- inhibition at 0.1 µM [9]: -16%

SMILES: CCc1c(F)ccc2cc(O)cc(N3CCc4c(nc(OC[C@@]56CCCN5C[C@H](F)C6)nc4N4CCCc5nn(C6CC6)cc5C4)C3)c12 [Example 239, 4-(4-(2-cyclopropyl-7,8-dihydropyrazolo[4,3-c]azepin-5(2H,4H,6H)-yl)-2-(((2R,7aS)-2-fluorohexahydro-1H-pyrrolizin-7a-yl)methoxy)-5,6-dihydropyrido[3,4-d]pyrimidin-7(8H)-yl)-5-ethyl-6-fluoronaphthalen-2-ol]
- IC50 ([1]; Cisbio pERK HTRF): 4100 nM
- inhibition at 0.1 µM [1]: -8%
- inhibition at 0.1 µM [2]: -9%
- IC50 [3]: 21 nM
- IC50 ([4]; Cisbio pERK HTRF): 3140 nM
- inhibition at 0.1 µM [4]: 6%
- inhibition at 0.1 µM [5]: -8%
- IC50 [6]: 57 nM
- IC50 [7]: 62 nM
- inhibition at 0.1 µM [8]: -5%
- inhibition at 0.1 µM [9]: 11%

SMILES: CCc1c(F)ccc2cc(O)cc(N3CCc4c(nc(OC[C@@]56CCCN5C[C@H](F)C6)nc4N4CCCCC(COCC(=O)NC)C4)C3)c12 (stereo partly drawn) [Example 245, 2-((1-(7-(8-ethyl-7-fluoro-3-hydroxynaphthalen-1-yl)-2-(((2R,7aS)-2-fluorohexahydro-1H-pyrrolizin-7a-yl)methoxy)-5,6,7,8-tetrahydropyrido[3,4-d]pyrimidin-4-yl)azepan-3-yl)methoxy)-N-methylacetamide]
- IC50 ([1]; Cisbio pERK HTRF): 1640 nM
- inhibition at 0.1 µM [1]: 15%
- inhibition at 0.1 µM [2]: 4%
- IC50 [3]: 9 nM
- IC50 ([4]; Cisbio pERK HTRF): 1460 nM
- inhibition at 0.1 µM [4]: 12%
- inhibition at 0.1 µM [5]: 5%
- IC50 [6]: 13 nM
- IC50 [7]: 8 nM
- inhibition at 0.1 µM [8]: 10%
- inhibition at 0.1 µM [9]: 12%

SMILES: CCc1c(F)ccc2cc(O)cc(N3CCc4c(nc(OC[C@@]56CCCN5C[C@H](F)C6)nc4N4CCCC5(C4)NC(=O)NC5=S)C3)c12 (stereo partly drawn) [Example 250, 7-(7-(8-ethyl-7-fluoro-3-hydroxynaphthalen-1-yl)-2-(((2R,7aS)-2-fluorohexahydro-1H-pyrrolizin-7a-yl)methoxy)-5,6,7,8-tetrahydropyrido[3,4-d]pyrimidin-4-yl)-4-thioxo-1,3,7-triazaspiro[4.5]decan-2-one]
- IC50 ([1]; Cisbio pERK HTRF): 763 nM
- inhibition at 0.1 µM [1]: 25%
- inhibition at 0.1 µM [2]: 36%
- IC50 [3]: 9 nM
- IC50 ([4]; Cisbio pERK HTRF): 283 nM
- inhibition at 0.1 µM [4]: -2%
- inhibition at 0.1 µM [5]: 34%
- IC50 [6]: 19 nM
- IC50 [7]: 10 nM
- inhibition at 0.1 µM [8]: 26%
- inhibition at 0.1 µM [9]: 36%

SMILES: CCc1c(F)ccc2cc(O)cc(N3CCc4c(nc(OC[C@@]56CCCN5C[C@H](F)C6)nc4N4CCCCC(COCC(=O)N(C)C)C4)C3)c12 (stereo partly drawn) [Example 251, 2-((1-(7-(8-ethyl-7-fluoro-3-hydroxynaphthalen-1-yl)-2-(((2R,7aS)-2-fluorohexahydro-1H-pyrrolizin-7a-yl)methoxy)-5,6,7,8-tetrahydropyrido[3,4-d]pyrimidin-4-yl)azepan-3-yl)methoxy)-N,N-dimethylacetamide]
- IC50 ([1]; Cisbio pERK HTRF): 1200 nM
- inhibition at 0.1 µM [1]: 3%
- inhibition at 0.1 µM [2]: 21%
- IC50 [3]: 3 nM
- IC50 ([4]; Cisbio pERK HTRF): 1310 nM
- inhibition at 0.1 µM [4]: -4%
- inhibition at 0.1 µM [5]: 2%
- IC50 [6]: 7 nM
- IC50 [7]: 5 nM
- inhibition at 0.1 µM [8]: -7%
- inhibition at 0.1 µM [9]: 15%

SMILES: CCc1c(F)ccc2cc(O)cc(N3CCc4c(nc(OC[C@@]56CCCN5C[C@H](F)C6)nc4N4CCCCC(COC(C)C(=O)N(C)C)C4)C3)c12 (stereo partly drawn) [Example 252, 2-((1-(7-(8-ethyl-7-fluoro-3-hydroxynaphthalen-1-yl)-2-(((2R,7aS)-2-fluorohexahydro-1H-pyrrolizin-7a-yl)methoxy)-5,6,7,8-tetrahydropyrido[3,4-d]pyrimidin-4-yl)azepan-3-yl)methoxy)-N,N-dimethylpropanamide]
- IC50 ([1]; Cisbio pERK HTRF): 1740 nM
- inhibition at 0.1 µM [1]: 0%
- inhibition at 0.1 µM [2]: 16%
- IC50 [3]: 7 nM
- IC50 ([4]; Cisbio pERK HTRF): 1950 nM
- inhibition at 0.1 µM [4]: -5%
- inhibition at 0.1 µM [5]: -7%
- IC50 [6]: 23 nM
- IC50 [7]: 11 nM
- inhibition at 0.1 µM [8]: 14%
- inhibition at 0.1 µM [9]: 3%

SMILES: CCc1c(F)ccc2cc(O)cc(N3CCc4c(nc(OC[C@@]56CCCN5C[C@H](F)C6)nc4N4CCCn5nc(N(C)S(N)(=O)=O)cc5C4)C3)c12 [Example 291, 7-(8-ethyl-7-fluoro-3-hydroxy-1-naphthyl)-2-(((2R,7aS)-2-fluorotetrahydro-1H-pyrrolizin-7a(5H)-yl)methoxy)-4-(2-((sulfamoyl)methylamino)-7,8-dihydro-4H-pyrazolo[1,5-a][1,4]diazepin-5(6H)-yl)-6,8-dihydro-5H-pyrido[3,4-d]pyrimidine]
- inhibition at 0.1 µM [2]: 23%
- IC50 [3]: 20 nM
- inhibition at 0.1 µM [5]: 20%
- IC50 [6]: 8 nM
- IC50 [7]: 21 nM
- inhibition at 0.1 µM [8]: 12%
- inhibition at 0.1 µM [9]: 4%

SMILES: CCc1c(F)ccc2cc(O)cc(N3CCc4c(nc(OC[C@@]56CCCN5C[C@H](F)C6)nc4N4CCCCC(C(=O)N(C)C)C4)C3)c12 (stereo partly drawn) [Example 313, 1-(7-(8-ethyl-7-fluoro-3-hydroxynaphthalen-1-yl)-2-(((2R,7aS)-2-fluorohexahydro-1H-pyrrolizin-7a-yl)methoxy)-5,6,7,8-tetrahydropyrido[3,4-d]pyrimidin-4-yl)-N,N-dimethylazepane-3-carboxamide]
- IC50 ([1]; Cisbio pERK HTRF): 747 nM
- inhibition at 0.1 µM [2]: 7%
- IC50 [3]: 25 nM
- IC50 ([4]; Cisbio pERK HTRF): 2400 nM
- inhibition at 0.1 µM [5]: 8%
- IC50 [6]: 38 nM
- IC50 [7]: 7 nM
- inhibition at 0.1 µM [8]: 2%
- inhibition at 0.1 µM [9]: 31%

SMILES: CCc1c(F)ccc2cc(O)cc(N3CCc4c(nc(OC[C@@]56CCCN5C[C@H](F)C6)nc4N4CCCCC(CC(=O)N(C)C)C4)C3)c12 (stereo partly drawn) [Example 345, 2-(1-(7-(8-ethyl-7-fluoro-3-hydroxynaphthalen-1-yl)-2-(((2R,7aS)-2-fluorohexahydro-1H-pyrrolizin-7a-yl)methoxy)-5,6,7,8-tetrahydropyrido[3,4-d]pyrimidin-4-yl)azepan-3-yl)-N,N-dimethylacetamide]
- inhibition at 0.1 µM [2]: 12%
- IC50 [3]: < 2 nM
- IC50 ([4]; Cisbio pERK HTRF): 1640 nM
- inhibition at 0.1 µM [5]: 13%
- IC50 [6]: 6 nM
- IC50 [7]: 4 nM
- inhibition at 0.1 µM [8]: 5%
- inhibition at 0.1 µM [9]: -9%

SMILES: CCc1c(F)ccc2cc(O)cc(N3CCc4c(nc(OC[C@@]56CCCN5C[C@H](F)C6)nc4N4CCCn5nc(C(=O)N6CC[C@H]7CC[C@@H]6C7)cc5C4)C3)c12 [Example 617, ((1R,5R)-2-azabicyclo[3.2.1]octan-2-yl)(5-(7-(8-ethyl-7-fluoro-3-hydroxynaphthalen-1-yl)-2-(((2R,7aS)-2-fluorotetrahydro-1H-pyrrolizin-7a(5H)-yl)methoxy)-5,6,7,8-tetrahydropyrido[3,4-d]pyrimidin-4-yl)-5,6,7,8-tetrahydro-4H-pyrazolo[1,5-a][1,4]diazepin-2-yl)methanone]
- IC50 [1]: 15 nM
- IC50 ([2]; A549, 3 h, 3 hr compound incubation): 27 nM
- IC50 [4]: 13 nM
- IC50 ([5]; NCI-H358, 3 h, 3 hr compound incubation): 8 nM
- IC50 ([8]; HCT-116, 3 h, 3 hr compound incubation): 115 nM
- IC50 ([9]; NCI-H460, 3 h, 3 hr compound incubation): 40 nM
